Experiments:
[1] = tested on: HSP70 mRNA expression in human promyelocytic leukemia cells (HL-60 cells); test: Evaluation of HSP70 mRNA expression-inducing activity in HL-60 cells; format: cell-based; settings: for concentration at which HSP70 mRNA expression inducing ability was increased up to 150% relative to the control: 4 hours at 37° C., corrected with beta 2 microglobulin gene; for HSP70 mRNA expression as compared with the control: 4 hours, FIGS. 1-3, percentages for the control
Experimental: The HSP70 expression-inducing activity by Compounds 1-3 was evaluated by measuring a HSP70 mRNA expression level.
Human promyelocytic leukemia cells (HL-60 cells) was suspended in RPMI 1640 medium supplemented with 10% fetal bovine serum, and was transferred into a 1.5 mL tube (45,000 cells/0.9 mL). To the tube was added 0.1 mL of each sample that had been prepared in a 1% DMSO solution and the tube was allowed to stand at 37° C. for 4 hours. To a control was added 0.1 mL of 1% DMSO solution. After cultured for 4 hours, the cells was centrifuged by a small refrigerated centrifuge (1,000 g×5 minutes) to precipitate the HL-60 cells. After removal of the supernatant, the cells were lysed in 0.25 mL Trizol (manufactured by Thermo Fisher Scientific) and then total RNA was extracted according to the protocol. The RNA was dissolved in RNase-free water, and the concentration of the RNA (wave length 260 nm) was measured by using a microvolume spectrophotometer NanoDrop 2000/2000c (manufactured by Thermo Fisher Scientific). The RNA solution was diluted with RNase-free water so as to have a concentration of 50 ng/mL, and then cDNA was synthesized by using ReverTra Ace® qPCR RT Kit (manufactured by TOYOBO). The reaction liquid (10 μl) after the reverse transcription was diluted with RNase-free water so as to be 100 μL, and then used as a template for PCR. Beta 2 microglobulin gene was used as an internal control gene for correction of the HSP70 gene expression. The primer sequences of genes used for the PCR reaction are as follows.
The expression was analyzed by using CFX Connect Real-Time PCR Detection System (manufactured by Bio-rad). 10 μL of the PCR reaction liquid was incubated at 95° C. for 3 minutes (initial denaturation), followed by repetition of 55 cycles comprising denaturation at 95° C. for 10 seconds, and annealing and extension at 57.8° C. for 30 seconds. Finally, the melting curve was measured every 0.2° C. in the range from 65° C. to 95° C. Expression levels of HSP70 gene and internal standard gene were analyzed using Bio-Rad CFX Manager 3.1.

[2] = tested on: male Wistar rats; test: Light period activity level after 8-hour phase advance (model of mild sleep disorder), dietary administration; format: in vivo, rat; settings: for activity level of Day 1 and Day 2 during the light period compared with the Control group: Dunnett test with mixed model for repeated measures; for activity level on Day 1, light period (12 hours) after the phase advance compared with the Control group: Dunnett test
Description: Firstly, 7-week old male Wistar rats were implanted intraperitoneally with a small activity meter (NanoTag®, Kissei Comtech Co., Ltd.). Subsequently, after a week of recovery period, the rats were divided into four groups (Control group, Compound A-1 group, Compound A-2 group, and Compound A-3 group; n=17 each) shown in Table 1 by stratified randomization assignment using body weight as an index, and test diets were dietary administered to them. At the 15th day from the start of dietary administration, the light/dark cycle was advanced by 8 hours, and after that, dietary administration of test diets was continued for 2 weeks. The light/dark cycle of the breeding environment excluding the phase advance date was set to 12 hours cycle, and the illuminance of the light period was set to be approximately 200 1× (185-230 1×). In this model of mild sleep disorder with the phase advance, the influence of test feed administration on the light period activity level after the phase advance was examined.
The test was carried out by a two-sided test, the significance level of the test was set to 5%, and the trend difference was 10% on both sides. For the analysis, SAS software release 9.3 (manufactured by SAS Institute Japan Ltd.) was used.

O=C1N[C@@H](Cc2ccccc2)C(=O)N2CCC[C@@H]12 [Compound 2, (3S,8aS)-3-benzylhexahydropyrrolo[1,2-a]pyrazine-1,4-dione]
concentration at which HSP70 mRNA expression inducing ability was increased up to 150% relative to the control [1]: 0.045 mg/mL
HSP70 mRNA expression as compared with the control [1]: enhanced mRNA expression of HSP70 gene

O=C1N[C@@H](Cc2ccc(O)cc2)C(=O)N2CCC[C@@H]12 [Compound 3, (3S,8aS)-3-(4-hydroxybenzyl)hexahydropyrrolo[1,2-a]pyrazine-1,4-dione]
concentration at which HSP70 mRNA expression inducing ability was increased up to 150% relative to the control [1]: 0.101 mg/mL
HSP70 mRNA expression as compared with the control [1]: enhanced mRNA expression of HSP70 gene

CC(C)C[C@@H]1NC(=O)[C@@H]2CCCN2C1=O [Compound 1, (3S,8aS)-3-isobutylhexahydropyrrolo[1,2-a]pyrazine-1,4-dione]
concentration at which HSP70 mRNA expression inducing ability was increased up to 150% relative to the control [1]: 0.083 mg/mL
HSP70 mRNA expression as compared with the control [1]: enhanced mRNA expression of HSP70 gene
activity level of Day 1 and Day 2 during the light period compared with the Control group ([2]; Compound A-2 group: MF containing 0.005% of Compound A (6.25 mg/kg BW/day), P=0.0481): significantly inhibited the activity level
activity level on Day 1, light period (12 hours) after the phase advance compared with the Control group ([2]; Compound A-2 group: MF containing 0.005% of Compound A (6.25 mg/kg BW/day), P=0.016): significantly suppressed the activity level
activity level of Day 1 and Day 2 during the light period compared with the Control group ([2]; Compound A-3 group: MF containing 0.05% of Compound A (62.46 mg/kg BW/day), P=0.0978): tendency to suppress the activity level
activity level on Day 1, light period (12 hours) after the phase advance compared with the Control group ([2]; Compound A-3 group: MF containing 0.05% of Compound A (62.46 mg/kg BW/day), P=0.0536): tended to suppress the activity level
